Reference: patent US20140140991A1, “METHODS OF TREATING A DISEASE OR DISORDER ASSOCIATED WITH BRUTON'S TYROSINE KINASE” (Celgene Avilomics Research, Inc., priority 2012, published 2014)
Each block holds one compound with its values, some of them ahead of it.

Tests used:
Syk = Syk (Homo sapiens, UniProt P43405); conditions: DLBCL, CLL, and mantle cell lymphoma; cited from earlier work
[1] = Safety and pharmacokinetics, single dose studies in healthy subjects; assay type: in vivo, human
[2] = Environmental stability (heat, acid, base); assay type: physicochemical
physchem = conditions: pH 3, aqueous buffer

SMILES: COc1cc(Nc2ncc(F)c(Nc3ccc4c(n3)N(COP(=O)(O)O)C(=O)C(C)(C)O4)n2)cc(OC)c1OC [fostamatinib disodium]
- clinical responses (Syk): produced clinical responses

SMILES: C=CC(=O)Nc1cccc(Nc2nc(Nc3ccc(OCCOC)cc3)ncc2F)c1 [Compound 1, N-(3-(5-fluoro-2-(4-(2-methoxyethoxy)phenylamino)pyrimidin-4-ylamino)phenyl)acrylamide]
- pharmacokinetics (PK) [1]: predictable pharmacokinetics
- safety [1]: adequate safety

- environmental instabilities (i.e. heat, acid, base) that require special handling [2]: no environmental instabilities
- solubility (physchem): 400 µg/mL
SMILES: C=CC(=O)Nc1cccc(Nc2nc(Nc3ccc(OCCOC)cc3)ncc2F)c1.O=S(=O)(O)c1ccccc1 [N-(3-(5-fluoro-2-(4-(2-methoxyethoxy)phenylamino)pyrimidin-4-ylamino)phenyl)acrylamide benzenesulfonic acid salt]
